Test results taken from US7205298B2, “Substituted triazine kinase inhibitors” (Janssen Pharmaceutica N.V., priority 2002, dated 2007).
Values belong to the molecule of their own block, whether it stands above or below them.

Experiments:
[1] = target: T1, PKC β-2 (Homo sapiens, UniProt P05771); assay: Kinase selectivity assay PKC β-2; format: biochemical
T1 construct: purchased BIOMOL SE-143; host or cells: insect cells
Procedure: Assays to test compound inhibition of other kinases were preformed using methods that measure the amount of phosphorylation of a biotinylated peptide substrate. Biotinylated peptide substrates were selected from the literature as appropriate for the enzyme being evaluated. The general procedure used to assay for kinase activity is as follows: a kinase reaction mix was prepared in 50 mM Tris-HCl pH=8, 10 mM MgCl2, 0.1 mM Na3VO4, 1 mM DTT, 10 μM ATP, 0.25–1 μM biotinylated peptide substrate, 0.2–0.8 μCuries per well ^33P-γ-ATP (2000–3000 Ci/mmol). Assay conditions vary slightly for each protein kinase, for example, insulin receptor kinase requires 10 mM MnCl2 for activity and Calmodulin-dependent protein kinase requires calmodulin and 2 mM CaCl2. The reaction mixture was dispensed into the wells of a streptavidin coated Flashplate and 1 μL test compound in 100% DMSO was added to a 100 μL reaction volume resulting in a final concentration of 1% DMSO in the reaction. Enzyme was diluted in 50 mM Tris-HCl pH=8.0, 0.1% BSA and added to each well. The reaction was incubated for one hour at 30° C. in the presence of a test compound. […] The plate was read on a scintillation counter to determine ^33P-γ-ATP incorporated into the immobilized peptide substrate. […] A maximum and minimum signal for the assay was determined on each plate. […]

[2] = test system: A375 melanoma xenograft; assay: In vivo inhibition of tumor growth, tumor growth delay method; settings: for MDS to 2.0 g ± SEM (n): A375; for animals survived at day 57: group of six mice; for survival increase: vs control groups
Procedure: The in vivo effect of a compound on the growth of human tumor cells can be evaluated by implanting human tumor cells originating from a variety of different tumor types (such as A375 human melanoma cells) into the hindflank of athymic mice and administering a test compound to the mice.
Female nude mice were implanted subcutaneously with 1 mm^3 A375 melanoma fragments in the flank. Tumors were monitored twice weekly and then daily as the neoplasms reached the desired size range (about 75 mg). […] Estimated tumor weight was calculated using the formula (where w=width and l=length in mm of an A375 melanoma tumor): […]
All treatments were initiated on Day 1 and the study was terminated on Day 57.
The tumor growth delay (TGD) method was used in this study. In the TGD method, each animal was euthanized when its A375 neoplasm reached a size of 2.0 g. Mean Day of Survival (MDS) values were calculated for all groups. The treatment-effected mean “increase in survival” of various groups were compared to each other and to the mean survival times of mice receiving vehicle. The MDS values calculated for each group, based on the calculated day of death of each mouse, is given by the formula:
Time to exceed endpoint (observed)=number of days it takes for each tumor to grow past the endpoint (cut-off) size. Once the tumor reaches the cut-off size, the animal is euthanized. • D2=day animal is euthanized. • D1=last day of caliper measurement before tumor reaches the endpoint. • Wt2=tumor weight (mg) on D2 • Wt1=tumor weight (mg) on D1 • Endpoint weight=predetermined “cut-off” tumor size for the model being used.
Animals were weighed twice weekly during the study. Mice were examined frequently for clinical signs of any adverse, drug-related side effects. Acceptable toxicity for cancer drugs in mice is defined by the NCI as no mean group weight loss of over 20% during the test, and not more than one toxic death among ten treated animals.

T1 sequence (P05771 1-673 isoform P05771-2): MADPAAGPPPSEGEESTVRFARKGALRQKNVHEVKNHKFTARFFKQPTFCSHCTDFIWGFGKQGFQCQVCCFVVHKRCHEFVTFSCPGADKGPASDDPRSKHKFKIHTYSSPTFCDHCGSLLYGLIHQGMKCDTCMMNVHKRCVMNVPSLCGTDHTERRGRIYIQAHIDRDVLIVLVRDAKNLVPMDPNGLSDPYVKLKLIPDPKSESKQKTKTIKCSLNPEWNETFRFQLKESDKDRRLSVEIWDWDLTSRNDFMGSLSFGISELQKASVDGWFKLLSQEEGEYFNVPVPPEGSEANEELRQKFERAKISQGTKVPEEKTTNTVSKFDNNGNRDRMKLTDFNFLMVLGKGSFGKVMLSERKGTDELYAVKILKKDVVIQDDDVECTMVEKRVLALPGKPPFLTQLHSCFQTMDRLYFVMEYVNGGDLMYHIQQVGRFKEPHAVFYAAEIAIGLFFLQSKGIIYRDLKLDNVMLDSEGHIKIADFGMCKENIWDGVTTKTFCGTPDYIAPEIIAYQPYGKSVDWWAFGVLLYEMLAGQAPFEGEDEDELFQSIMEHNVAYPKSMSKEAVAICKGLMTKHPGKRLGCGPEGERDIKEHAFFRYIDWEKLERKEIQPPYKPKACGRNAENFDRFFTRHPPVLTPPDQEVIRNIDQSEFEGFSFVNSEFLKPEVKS

- IC50 [1]: > 100 µM
Structure (SMILES): OCCCNc1cncc(-c2ncnc(Nc3cccc(Cl)c3)n2)c1 [Compound 1, 3-((5-(4-((3-chlorophenyl)amino)-1,3,5-triazin-2-yl)-3-pyridinyl)amino)-1-propanol]

Structure (SMILES): OCCCNc1cc(-c2ncnc(Nc3cccc(Cl)c3)n2)ccn1 [Compound 2, 3-((4-(4-((3-chlorophenyl)amino)-1,3,5-triazin-2-yl)-2-pyridinyl)amino)-1-propanol]
- surviving longer than the PEG vehicle control and Growth Control groups ([2]; 100 mg/kg): about 8 days
- Max % BW loss (day) ([2]; 100 mg/kg i.p. qd×32): −17.2% (33)
- MDS to 2.0 g ± SEM (n) ([2]; 100 mg/kg i.p. qd×32, female nude mice): 29.6 days
- MDS to 2.0 g ± SEM (n) ([2]; 100 mg/kg i.p. qd×32, female nude mice, listed as Cpd 2): 29.6 ± 3.1 (6) days
- animals survived at day 57 ([2]; 100 mg/kg): None
- survival increase ([2]; 100 mg/kg): about 37%
- surviving longer than the PEG vehicle control and Growth Control groups ([2]; 125 mg/kg): about 14 days
- Max % BW loss (day) ([2]; 125 mg/kg i.p. qd×32): −18.8% (29)
- MDS to 2.0 g ± SEM (n) ([2]; 125 mg/kg i.p. qd×32, female nude mice): 35.2 days
- MDS to 2.0 g ± SEM (n) ([2]; 125 mg/kg i.p. qd×32, female nude mice, listed as Cpd 2): 35.2 ± 3.6 (5) days
- animals survived at day 57 ([2]; 125 mg/kg): One out of six
- survival increase ([2]; 125 mg/kg): about 63%
- surviving longer than the PEG vehicle control and Growth Control groups ([2]; 150 mg/kg): about 12 days
- Max % BW loss (day) ([2]; 150 mg/kg i.p. qd×32): −17.6% (33)
- MDS to 2.0 g ± SEM (n) ([2]; 150 mg/kg i.p. qd×32, female nude mice): 33.6 days
- MDS to 2.0 g ± SEM (n) ([2]; 150 mg/kg i.p. qd×32, female nude mice, listed as Cpd 2): 33.6 ± 3.0 (4) days
- animals survived at day 57 ([2]; 150 mg/kg): One out of six
- survival increase ([2]; 150 mg/kg): about 55%
- NCI definition for acceptable toxicity of a cancer drug in mice ([2]; 150 and 125 mg/kg dose groups, no mean group weight loss over 20%, not more than one toxic death among ten): satisfied the NCI definition for acceptable toxicity
- efficacy against the A375 melanoma xenograft ([2]; high doses of 150 and 125 mg/kg compared): approximately equivalent efficacy
